{
  "source": "ChEMBL document CHEMBL1147353",
  "about": "“The Isolation of Majusculamide C from the Sponge Ptilocaulis trachys Collected in Enewetak and Determination of the Absolute Configuration of the 2-Methyl-3-aminopentanoic Acid Residue” (1993)",
  "tested_on": "P388",
  "experiment": "Cytotoxicity against mouse P388 cells",
  "type": "functional",
  "conditions": "read-out: ED50 (the source's name)",
  "note": "Numbered stars: 1 amine (or outer) side, 2 acyl side, 3 side chain; on linkers, the order of the positions; unused ones are H or OH. Square brackets hold non-standard residues; d marks the D form. Peptide text beside a SMILES is read from it. X1 = CC[C@H](C)[C@H](OC(=O)[C@@H](C)[C@@H](CC)N[*:1])C(=O)[*:2]; X2 = C[C@H](N[*:1])C(=O)C(C)(C)C(=O)[*:2]; NMeY = CN[C@@H](Cc1ccc(O)cc1)C(=O)O; NMeF = CN[C@@H](Cc1ccccc1)C(=O)O; NMeL = CN[C@@H](CC(C)C)C(=O)O; NMeV = CN[C@H](C(=O)O)C(C)C; NMeA = CN[C@@H](C)C(=O)O",
  "data": [
    {"compound": "CC[C@H](C)[C@@H]1OC(=O)[C@@H](C)[C@@H](CC)NC(=O)[C@H](C)NC(=O)C(C)(C)C(=O)[C@H](C)NC(=O)[C@H](Cc2ccc(OC)cc2)N(C)C(=O)[C@H](C(C)C)N(C)C(=O)CNC(=O)[C@H](CC(C)C)N(C)C(=O)CNC1=O", "note": "[DOLASTATIN 11] (cyclo(A[X1]G[NMeL]G[NMeV][NMeY](Me)[X2]))", "values": [
      {"measurement": "EC50", "result": 0.0027, "unit": "µg/mL"}
    ]},
    {"compound": "CC[C@H](C)[C@@H]1OC(=O)[C@@H](C)[C@@H](CC)NC(=O)[C@H](C)N(C)C(=O)C(C)(C)C(=O)[C@H](C)NC(=O)[C@H](Cc2ccccc2)N(C)C(=O)[C@H](C(C)C)N(C)C(=O)CNC(=O)[C@H](CC(C)C)N(C)C(=O)CNC1=O", "note": "[DOLASTATIN 12] (cyclo(G[NMeL]G[NMeV][NMeF][X2][NMeA][X1]))", "values": [
      {"measurement": "EC50", "result": 0.075, "unit": "µg/mL"}
    ]}
  ]
}
